Laboratory results reported in EPA's CvTdb concentration-time database.

Tests used:
Test in all cases: concentration in plasma after dosing
Rat [1] = settings: 10 min; dosed: Emodin; 5 mg/kg; iv; Male; F344/N
Rat [2] = settings: 9 h; dosed: Emodin; 80 mg/kg; oral; Male; F344/N
Rat [3] = settings: 40 min; dosed: Emodin; 5 mg/kg; iv; Male; F344/N
Rat [4] = settings: 6 h; dosed: Emodin; 80 mg/kg; oral; Female; F344/N
Rat [5] = settings: dosed: Emodin, 5 mg/kg, iv, Male, F344/N
Rat [6] = settings: 10 min; dosed: Emodin; 5 mg/kg; iv; Female; F344/N
Rat [7] = settings: 9 h; dosed: Emodin; 80 mg/kg; oral; Male; F344/N; remark: listed apart in the source
Rat [8] = settings: 9 h; dosed: Emodin; 80 mg/kg; oral; Female; F344/N
Rat [9] = settings: 20 min; dosed: Emodin; 5 mg/kg; iv; Male; F344/N
Rat [10] = settings: dosed: Emodin, 5 mg/kg, iv, Female, F344/N
Rat [11] = settings: dosed: Emodin, 80 mg/kg, oral, Female, F344/N
Rat [12] = settings: dosed: Emodin, 80 mg/kg, oral, Female, F344/N; remark: listed apart in the source
Rat [13] = settings: 40 min; dosed: Emodin; 5 mg/kg; iv; Male; F344/N; remark: listed apart in the source
Rat [14] = settings: 9 h; dosed: Emodin; 80 mg/kg; oral; Female; F344/N; remark: listed apart in the source
Rat [15] = settings: 10 min; dosed: Emodin; 5 mg/kg; iv; Female; F344/N; remark: listed apart in the source
Rat [16] = settings: 10 min; dosed: Emodin; 5 mg/kg; iv; Male; F344/N; remark: listed apart in the source
Rat [17] = settings: 20 min; dosed: Emodin; 5 mg/kg; iv; Female; F344/N
Rat [18] = settings: dosed: Emodin, 5 mg/kg, iv, Female, F344/N; remark: listed apart in the source
Rat [19] = settings: dosed: Emodin, 5 mg/kg, iv, Female, F344/N; remark: listed apart in the source
Rat [20] = settings: 6 h; dosed: Emodin; 80 mg/kg; oral; Male; F344/N
Rat [21] = settings: F344/N
Rat [22] = settings: dosed: Emodin, 5 mg/kg, iv, Male, F344/N; remark: listed apart in the source
Rat [23] = settings: 40 min; dosed: Emodin; 5 mg/kg; iv; Female; F344/N
Rat [24] = settings: 6 h; dosed: Emodin; 80 mg/kg; oral; Female; F344/N; remark: listed apart in the source
Rat [25] = settings: 12 h; dosed: Emodin; 80 mg/kg; oral; Male; F344/N
Rat [26] = settings: 20 min; dosed: Emodin; 5 mg/kg; iv; Female; F344/N; remark: listed apart in the source
Rat [27] = settings: 5 min; dosed: Emodin; 5 mg/kg; iv; Male; F344/N
Rat [28] = settings: dosed: Emodin, 5 mg/kg, iv, Female, F344/N; remark: listed apart in the source
Rat [29] = settings: 20 min; dosed: Emodin; 5 mg/kg; iv; Male; F344/N; remark: listed apart in the source
Rat [30] = settings: 40 min; dosed: Emodin; 5 mg/kg; iv; Female; F344/N; remark: listed apart in the source
Rat [31] = settings: 5 min; dosed: Emodin; 5 mg/kg; iv; Male; F344/N; remark: listed apart in the source
Rat [32] = settings: 2 h; dosed: Oxymetholone; 30 mg/kg; oral; Female; F344/N
Rat [33] = settings: 2 h; dosed: Oxymetholone; 120 mg/kg; oral; Female; F344/N
Rat [34] = settings: 40 min; dosed: Oxymetholone; 30 mg/kg; oral; Male; F344/N
Rat [35] = settings: 4 h; dosed: Oxymetholone; 120 mg/kg; oral; Male; F344/N
Rat [36] = settings: 40 min; dosed: Oxymetholone; 120 mg/kg; oral; Male; F344/N
Rat [37] = settings: 0.5 h; dosed: Oxymetholone; 20 mg/kg; iv; Male; F344/N
Rat [38] = settings: 40 min; dosed: Oxymetholone; 120 mg/kg; oral; Male; F344/N; remark: listed apart in the source
Rat [39] = settings: 4 h; dosed: Oxymetholone; 30 mg/kg; oral; Male; F344/N
Rat [40] = settings: 20 min; dosed: Oxymetholone; 20 mg/kg; iv; Male; F344/N
Rat [41] = settings: 2 h; dosed: Oxymetholone; 120 mg/kg; oral; Female; F344/N; remark: listed apart in the source
Rat [42] = settings: 40 min; dosed: Oxymetholone; 30 mg/kg; oral; Male; F344/N; remark: listed apart in the source
Rat [43] = settings: 4 h; dosed: Oxymetholone; 30 mg/kg; oral; Male; F344/N; remark: listed apart in the source
Rat [44] = settings: 10 min; dosed: Oxymetholone; 20 mg/kg; iv; Male; F344/N
Rat [45] = settings: 1 h; dosed: Oxymetholone; 120 mg/kg; oral; Male; F344/N
Rat [46] = settings: 2 h; dosed: Oxymetholone; 120 mg/kg; oral; Male; F344/N
Rat [47] = settings: 12 h; dosed: Oxymetholone; 120 mg/kg; oral; Male; F344/N
Rat [48] = settings: 8 h; dosed: Oxymetholone; 120 mg/kg; oral; Male; F344/N
Rat [49] = settings: 2 h; dosed: Oxymetholone; 20 mg/kg; iv; Male; F344/N
Rat [50] = settings: 4 h; dosed: Oxymetholone; 20 mg/kg; iv; Male; F344/N
Rat [51] = settings: 5 min; dosed: Oxymetholone; 20 mg/kg; iv; Male; F344/N
Rat [52] = settings: 10 min; dosed: Oxymetholone; 120 mg/kg; oral; Male; F344/N
Rat [53] = settings: 20 min; dosed: Oxymetholone; 20 mg/kg; iv; Male; F344/N; remark: listed apart in the source
Rat [54] = settings: 6 h; dosed: Oxymetholone; 120 mg/kg; oral; Male; F344/N
Rat [55] = settings: 3 h; dosed: Oxymetholone; 120 mg/kg; oral; Male; F344/N
Rat [56] = settings: 8 h; dosed: Oxymetholone; 120 mg/kg; oral; Male; F344/N; remark: listed apart in the source
Rat [57] = settings: 1 h; dosed: Oxymetholone; 120 mg/kg; oral; Male; F344/N; remark: listed apart in the source
Rat [58] = settings: 0.5 h; dosed: Oxymetholone; 20 mg/kg; iv; Male; F344/N; remark: listed apart in the source
Rat [59] = settings: 1 h; dosed: Oxymetholone; 20 mg/kg; iv; Male; F344/N
Rat [60] = settings: 5 h; dosed: Oxymetholone; 120 mg/kg; oral; Male; F344/N
Rat [61] = settings: 10 min; dosed: Oxymetholone; 120 mg/kg; oral; Male; F344/N; remark: listed apart in the source
Rat [62] = settings: 2 h; dosed: Oxymetholone; 30 mg/kg; oral; Male; F344/N
Rat [63] = settings: 2 h; dosed: Oxymetholone; 120 mg/kg; oral; Male; F344/N; remark: listed apart in the source
Rat [64] = settings: 2 h; dosed: Oxymetholone; 30 mg/kg; oral; Male; F344/N; remark: listed apart in the source
Rat [65] = settings: 10 min; dosed: Oxymetholone; 20 mg/kg; iv; Male; F344/N; remark: listed apart in the source
Rat [66] = settings: 2 h; dosed: Oxymetholone; 20 mg/kg; iv; Male; F344/N; remark: listed apart in the source
Rat [67] = settings: 3 h; dosed: Oxymetholone; 120 mg/kg; oral; Male; F344/N; remark: listed apart in the source
Rat [68] = settings: 1 h; dosed: Oxymetholone; 20 mg/kg; iv; Male; F344/N; remark: listed apart in the source
Rat [69] = settings: 5 min; dosed: Oxymetholone; 20 mg/kg; iv; Male; F344/N; remark: listed apart in the source
Rat [70] = settings: 2 h; dosed: Oxymetholone; 30 mg/kg; oral; Female; F344/N; remark: listed apart in the source

Cc1cc(O)c2c(c1)C(=O)c1cc(O)cc(O)c1C2=O [Emodin]
Settings	concentration in plasma [ng/mL]
Rat [1]	7370
Rat [2]	153
Rat [3]	1700
Rat [4]	151
Rat [6]	2260
Rat [7]	155
Rat [8]	232
Rat [9]	4360
Rat [13]	2200
Rat [14]	198
Rat [15]	3010
Rat [16]	6180
Rat [17]	1190
Rat [20]	108
Rat [23]	928
Rat [24]	165
Rat [25]	110
Rat [26]	794
Rat [27]	8480
Rat [29]	5930
Rat [30]	963
Rat [31]	8390

Settings	concentration in plasma [ng/mL]
Rat [5], 1 h	229
Rat [5], 2 min	10500
Rat [10], 1.5 h	151
Rat [10], 5 min	5160
Rat [11], 3 h	136
Rat [11], 12 h	175
Rat [12], 3 h	255
Rat [12], 12 h	184
Rat [18], 1.5 h	128
Rat [18], 5 min	4780
Rat [19], 1 h	158
Rat [19], 2 min	6490
Rat [22], 1 h	219
Rat [22], 2 min	8580
Rat [28], 1 h	163
Rat [28], 2 min	5990

concentration in plasma [ng/mL], Rat [21], dosed: Emodin
Settings	Female	Male
1 h, 5 mg/kg, iv	256	205
1.5 h, 5 mg/kg, iv	119	–
1.5 h, 80 mg/kg, oral	136	–
2 min, 5 mg/kg, iv	4970	8380
3 h, 80 mg/kg, oral	115	–
5 min, 5 mg/kg, iv	3040	7820
6 h, 40 mg/kg, oral	114	–
6 h, 80 mg/kg, oral	143	159
8 h, 40 mg/kg, oral	111	–
9 h, 80 mg/kg, oral	269	126
10 min, 5 mg/kg, iv	1650	4660
12 h, 80 mg/kg, oral	167	116
20 min, 5 mg/kg, iv	2400	4970
40 min, 5 mg/kg, iv	740	1980

C[C@]12C/C(=C/O)C(=O)C[C@@H]1CC[C@@H]1[C@@H]2CC[C@@]2(C)[C@H]1CC[C@]2(C)O [Oxymetholone]
Settings	concentration in plasma [ng/mL]
Rat [32]	276
Rat [33]	1020
Rat [34]	641
Rat [35]	910
Rat [36]	733
Rat [37]	2190
Rat [38]	675
Rat [39]	316
Rat [40]	2210
Rat [41]	918
Rat [42]	629
Rat [43]	466
Rat [44]	6510
Rat [45]	952
Rat [46]	1610
Rat [47]	255
Rat [48]	203
Rat [49]	846
Rat [50]	376
Rat [51]	14400
Rat [52]	319
Rat [53]	3010
Rat [54]	462
Rat [55]	1070
Rat [56]	339
Rat [57]	739
Rat [58]	1720
Rat [59]	881
Rat [60]	600
Rat [61]	666
Rat [62]	711
Rat [63]	1330
Rat [64]	875
Rat [65]	8040
Rat [66]	914
Rat [67]	1080
Rat [68]	1490
Rat [69]	20300
Rat [70]	231

concentration in plasma [ng/mL], Rat [21], dosed: Oxymetholone
Settings	Female	Male
0.5 h, 20 mg/kg, iv	–	2070
1 h, 20 mg/kg, iv	–	1210
1 h, 120 mg/kg, oral	–	999
1.5 h, 120 mg/kg, oral	–	616
2 h, 20 mg/kg, iv	–	619
2 h, 30 mg/kg, oral	266	875
2 h, 120 mg/kg, oral	687	1130
3 h, 120 mg/kg, oral	–	925
4 h, 20 mg/kg, iv	–	496
4 h, 30 mg/kg, oral	–	427
4 h, 120 mg/kg, oral	–	977
5 h, 120 mg/kg, oral	–	527
5 min, 20 mg/kg, iv	–	20600
6 h, 120 mg/kg, oral	–	806
8 h, 120 mg/kg, oral	–	428
10 min, 20 mg/kg, iv	–	5510
10 min, 120 mg/kg, oral	–	626
12 h, 120 mg/kg, oral	–	208
20 min, 20 mg/kg, iv	–	4270
20 min, 120 mg/kg, oral	–	788
40 min, 30 mg/kg, oral	–	564
40 min, 120 mg/kg, oral	–	684
